According to patent US10617664B2, “Brain derived PPARα ligands” (Rush University Medical Center, priority 2015, dated 2020):

Assays:
Format in all cases: cell-based, mouse
[1] = system: PPRE-driven luciferase activity; experiment: PPRE-luciferase assay in Pparb-null astrocytes with PPARγ antagonist GW9662; conditions: Pparb-null astrocytes
Description: FIG. 16A) Pparb-null primary astrocytes plated at 60-70% confluence in 12-well plates were transfected with 0.25 μg of tkPPREx3-Luc (a PPRE-dependent luciferase reporter construct). Twenty-four hours after transfection, cells were treated with different concentrations of GW9662 for 30 min followed by stimulation with rosiglitazone. After 4 h, luciferase activities were assayed. […] After transfection, cells were also treated with GW9662 followed by stimulation with OCT (FIG. 16B), HEX (FIG. 16C) and HMB (FIG. 16D).
These astrocytes were pre-treated with PPARγ-antagonist GW9662 to nullify the involvement of PPARγ in reporter assay.

[2] = system: PPRE-driven luciferase activity; experiment: PPRE-luciferase assay in Ppara-null astrocytes transduced with Ppara constructs; conditions: Ppara-null astrocytes (empty vector)
Description: Astrocytes plated at 60-70% confluence were transfected with tk-PPREx3-Luc, a PPRE-dependent luciferase reporter construct. After 24 h of transfection, cells were treated with different concentrations of HEX (FIG. 10A), OCT (FIG. 10B) and HMB (FIG. 10C) for 4 h followed by monitoring luciferase activity. Under similar experimental condition, MTT was performed to understand the effect of these ligands on cell viability (FIG. 10D, HEX; FIG. 10E, OCT; FIG. 10F, HMB). Results are mean±SD of three independent experiments. ^ap<0.001 vs. control. Ppara-null astrocytes were transduced with lentivirions containing empty vector (FIG. 10G), FL-Ppara (FIG. 10H), Y314D-Ppara (FIG. 10I), Y464D-Ppara (FIG. 10J), and Y314D/Y464D-Ppara (FIG. 10K) for 48 h followed by transfection with tk-PPREx3-Luc. After 24 h of transfection, cells were treated with different doses of HEX, OCT and HMB for 4 h followed by monitoring luciferase activity. PPRE luciferase activity was assayed in Ppara-null astrocytes transduced with lentivirions containing empty vector (FIG. 10L), FL-Ppara (FIG. 10M), Y314D-Ppara (FIG. 10N), Y464D-Ppara (FIG. 10O), and Y314D/Y464D-Ppara (FIG. 10P) after treatment with different doses of WY14643, fenofibrate, and clofibrate. PPRE luciferase activity was assayed in primary hippocampal neurons transduced with lentivirions containing empty vector (FIG. 10Q), FL-Ppara (FIG. 10R), Y314D-Ppara (FIG. 10S), Y464D-Ppara (FIG. 10T), and Y314D/Y464D-Ppara (FIG. 10U) after treatment with different doses of HEX, OCT and HMB. Results are mean±SD of three independent experiments. ^ap<0.001 vs. control.

[3] = system: Ppara-null hippocampal neurons; experiment: Dendritic spine density (phalloidin) in transduced Ppara-null hippocampal neurons; conditions: lenti-FL-Ppara
Description: Ppara-null hippocampal neurons were transduced with lentivirions containing GFP (vector), FL-Ppara, and Y464D-Ppara for 48 h followed by treatment with vehicle (DMSO) (FIG. 11A), OCT (FIG. 11B), HEX (FIG. 11C), HMB (FIG. 11D), and WY14643 (FIG. 11E) for 24 h. Then neurons were stained for phalloidin to measure spine density. FIG. 11F) A representative picture of dendrite with spines (Cyan color) used for counting area of spine heads. Area of spine heads (FIG. 11G) and number of spines (FIG. 11H) in 10 μm of dendrites. Results are mean±SEM of 5 neurons per group. ^ap<0.05 vs vector only; ^bp<0.05 vs FL-Ppara. AMPA-driven calcium influx was measured in OCT (red), HEX (green) and HMB (purple)-treated Ppara-null hippocampal neurons transduced with lentivirions containing FL-Ppara (FIG. 11I), Y314D-Ppara (FIG. 11J), Y464D-Ppara (FIG. 11K), and Y314D/Y464D-Ppara (FIG. 11L). All neurons were treated with 50 μM of NMDA receptor antagonist N20C to inhibit passive calcium flow through NMDA receptor. (FIG. 11M-P) Similarly NMDA-driven calcium influx was measured in the lentivius-infected Ppara-null hippocampal neurons in the presence of different endogenous ligands. In these cases, Naspm-HCl was treated to stop the passive flow of calcium currents through AMPA receptor. Results are mean of three independent experiments.
Dendritic spines are the crucial mediators of synaptic transmission among central neurons and often serve as a primary candidate for the long term morphological substrates of neuronal plasticity^12,13. Therefore, the effect of these ligands on the increase of spine density in cultured hippocampal neurons was studied. Briefly, mouse Ppara-null hippocampal neurons were transduced with lentivirus containing empty vector, FL-Ppara, or Y464D-Ppara for a week followed by the treatment with OCT, HEX, and HMB for four more days. After that, neurons were labelled with phalloidin to monitor the spine density. […] This observation was further validated by measuring the area of spine heads (FIG. 11F-G) and number of spines (FIG. 11H) in HEX, OCT, and HMB-treated Ppara-null neurons. HEX (FIG. 17G-H), OCT (FIG. 17I-J) and HMB (FIG. 17K-L) stimulated the expression of CREB in Ppara-null hippocampal neurons that were transduced with lentivirons containing the FL-Ppara gene.
Hippocampal regions were dissected from 18-day-old embryonic fetus as described elsewhere (PMID: 25007337), combined and plated in poly-D-lysine coated plate for another 2-3 weeks for branching. After that, these neurons were transduced with GFP-containing lentivirions for 2 d. Neurons were stained with Dylight-554-conjugated phalloidin (Cat #21834; Thermofisher) as per manufactures protocol and visualized in fluorescence microscope. […]

O=C(Nc1ccccc1)c1cc([N+](=O)[O-])ccc1Cl [GW9662, reference compound]
effect on rosiglitazone-mediated increase in PPRE-luciferase activity [1]: Inhibition

Cc1cccc(Nc2cc(Cl)nc(SCC(=O)O)n2)c1C [WY14643, reference compound]
PPRE-driven luciferase activity [2]: unable to induce
density of spines [3]: stimulated
